Data from patent publication US20100234454A1 (priority 2006, published 2010).

How the values were obtained:
rats [1] = experiment: Flinches in rats after intraplantar injection of capsaicin; assay type: in vivo, rat
rats [2] = conditions: rat, in vivo

SMILES	number of flinches (mean) after intraplantar capsaicin following BCTC conditioning (rats [1]; 40 mg/kg BCTC s.c. one hour before capsaicin, 4 minutes, p<0.05, n=6)	reduction of induced pain effect (rats [2]) [%]	dose needed to decrease half of the number of flinches induced by the venom (rats [2]; sc) [mg/kg]	dose of maximal analgesic effect (rats [2]; sc) [mg/kg]	number of flinches (mean) after intraplantar capsaicin alone (rats [1]; 10 μg capsaicin intraplantar, 4 minutes observation, n=6)
CC(C)(C)c1ccc(NC(=O)N2CCN(c3ncccc3Cl)CC2)cc1 [BCTC, N-(4-Tertiarybutylphenyl)-4-(3-cholorphyridin-2-yl)tetrahydropyrazine-1(2H)-carbox-amide]	4.2	79	10 to 40	40	
COc1cc(CNC(=O)CCCC/C=C/C(C)C)ccc1O [capsaicin]					76.0
